Where “and” joins values, the source holds several entries; their conditions need not be identical. Equal values may be shown once.
What was measured:
adult whitefly [1] = test: Tube test assay: repelling effect on adult whitefly, treated leaf disks (Examples 1-3); format: in vivo
Method: For the purpose of the study, a tube test assay was performed using solutions of anatabine and DEET prepared according to Table 1.
For the purpose of the study, leaf disks were dipped for a total time of 30 seconds into the prepared solutions and left to dry for 10 minutes at room temperature. Subsequently, the leaf disks were deposited at the bottom of glass tubes and a minimum of 20 adult whiteflies were introduced into the tubes. […] The repelling effect of both anatabine and DEET is shown in Table 2 and was calculated by counting the number of whitefly landing on a leaf compared to the placebo control, using the Abbott's formula: […]
The placebo control defines the baseline, against which the repelling effect is then calculated according to the formula above.
For the purpose of the study, a tube test assay was performed using solutions of anatabine at three different concentrations prepared according to Table 3.
The placebo control defines the baseline, against which the repelling effect is then calculated.
For the purpose of the study, leaf disks were dipped for a total time of 30 seconds into the prepared solutions and left to dry for 10 minutes at room temperature. Subsequently, the leaf disks were deposited at the bottom of glass tubes and a minimum of 20 adult whiteflies were introduced into the tubes. The repelling effect of anatabine at three different concentrations was measured at different time points: after 1 hour, 3 hours, 6 hours. the repelling effect of anatabine at different concentrations is shown in Table 4.
A concentration of 5 percent was chosen based on the results of Example 2. […] In the placebo control the leaves were treated with solvent only. The placebo control defines the baseline, against which the repelling effect is then calculated.
(§1) For the purpose of the study, leaf disks were dipped for a total time of 30 seconds into the prepared solutions and left dry for 10 minutes at room temperature. Subsequently, the leaf disks were deposited at the bottom of glass tubes and a minimum of 20 adult whiteflies were introduced into the tubes.

adult whitefly [2] = test: Tube test assay: repelling effect with whitefly introduced at later infestation time points (Example 4); format: in vivo; details: concentration 5 percent; for repelling effect: remaining 5 days (up to 123 hours) of the evaluation period
Method: The repelling effect of anatabine on adult whitefly was evaluated in a further comparative study which introduced additional whitefly and freshly treated leaves at set evaluation time points. For the purpose of the study, a tube test assay was performed using solutions of anatabine and DEET at a concentration of 5 percent together with a placebo solution, as shown in Table 10. The placebo control defines the baseline, against which the repelling effect is then calculated.
Whitefly were introduced into the tube at infestation time points: 48, 72 and 120 hours and the repelling effect was measured after 3 hours at evaluation time points: 51, 75 and 123 hours.

whitefly [3] = test: Presence of eggs on treated leaves, evaluated visually; format: in vivo; details: concentration 5 percent; evaluation period of up to 6 days (144 hours)
Method: In addition, the presence and amount of eggs on the leaves after a period of 48 hours was evaluated visually and the results are shown in Table 7.
The presence of eggs was visually monitored 24 hours after each infestation time point.

whitefly [4] = test: Whitefly mortality on treated leaves; format: in vivo; details: concentration 5 percent
Method: as §1
The study also assessed the whitefly mortality rate over the duration of the evaluation period. […]

leaves = test: Damage to leaves caused by treatment
Method: as §1, with “left to” for “left”
as §1

[5] = concentration 1.0 percent, evaluation time 0 hour
[6] = concentration 1.0 percent, evaluation time 1 hour
[7] = concentration 1.0 percent, evaluation time 3 hour
[8] = concentration 5 percent, evaluation time 0 hour (Example 3)
[9] = concentration 5 percent, evaluation time 6 hour (Example 3)
[10] = concentration 5 percent, evaluation time 24 hour (Example 3)
[11] = concentration 5 percent, evaluation time 48 hour (Example 3)
[12] = infestation time 48 hour, evaluation time 51 hour
[13] = infestation time 72 hour, evaluation time 75 hour
[14] = infestation time 120 hour, evaluation time 123 hour

C1=CCC(c2cccnc2)NC1 (stereo not drawn) [Anatabine, anatabine]
Mean Repellence (adult whitefly [1]; [5]): 81.3% | Mean Repellence (adult whitefly [1]; [6]): 90.0% | Mean Repellence (adult whitefly [1]; [7]): 96.0% | Mean Repellence (adult whitefly [1]; concentration 1.0 percent, evaluation time 6 hour): 88.9% | repelling effect (adult whitefly [1]; concentration 1.0 percent, throughout the evaluation period of 6 hours): over 80% | Mean Repellence (adult whitefly [1]; concentration 2 percent, evaluation time 3 hour): 100% | Mean Repellence (adult whitefly [1]; concentration 2 percent, evaluation time 6 hour): 100% | Mean Repellence (adult whitefly [1]; [8]): 100% | Mean Repellence (adult whitefly [1]; concentration 5 percent, evaluation time 3 hour (Example 2)): 100% | Mean Repellence (adult whitefly [1]; concentration 5 percent, evaluation time 6 hour (Example 2)): 100% | Mean Repellence (adult whitefly [1]; [9]): 100% | Mean Repellence (adult whitefly [1]; [10]): 100% | Mean Repellence (adult whitefly [1]; [11]): 100% | repelling effect (adult whitefly [1]; concentration 5 percent, throughout the evaluation period of 48 hours): 100% | Mean Repellence (adult whitefly [1]; concentration 10 percent, evaluation time 3 hour): 100% | Mean Repellence (adult whitefly [1]; concentration 10 percent, evaluation time 6 hour): 100% | repelling effect (adult whitefly [1]; regardless of the concentration (2, 5, 10 percent), 3 and 6 hours): 100% | Mean Repellence (adult whitefly [2]; [12]): 100% | Mean Repellence (adult whitefly [2]; [13]): 85.3% | Mean Repellence (adult whitefly [2]; [14]): 82.2% | repelling effect (adult whitefly [2]): more than 80% | number of eggs observed on the leaves (whitefly [3]): remained low | Mean Mortality (whitefly [4]; evaluation time 0 hour): 0.0% | Mean Mortality (whitefly [4]; evaluation time 6 hour): 7.6% | Mean Mortality (whitefly [4]; evaluation time 24 hour): 41.3% | Mean Mortality (whitefly [4]; evaluation time 48 hour): 84.6% | Leaves damage (leaves; concentration 5 percent, evaluation time 48 hour): did not cause any damage | damage to leaves (leaves; concentrations of 5 percent or less (Example 2)): not damaged

CCN(CC)C(=O)c1cccc(C)c1 [DEET, N,N-Diethyl-meta-toluamide, reference compound]
drop of the repelling effect (adult whitefly [1]; concentration 1.0 percent, after 6 hours): ~40% | Mean Repellence (adult whitefly [1]; [5]): 87.5% | Mean Repellence (adult whitefly [1]; [6]): 90.0% | Mean Repellence (adult whitefly [1]; [7]): 68.0% | Mean Repellence (adult whitefly [1]; [8]): 100% | Mean Repellence (adult whitefly [1]; [9]): 100% | Mean Repellence (adult whitefly [1]; [10]): 94.9% | Mean Repellence (adult whitefly [1]; [11]): 93% and 93.4% | drop of efficacy (adult whitefly [2]; after the first 48 hours): ~50% | Mean Repellence (adult whitefly [2]; [12]): 54.1% | Mean Repellence (adult whitefly [2]; [13]): 55.9% | Mean Repellence (adult whitefly [2]; [14]): 48.9% | repelling effect (adult whitefly [2]): below 50% | Mean Mortality (whitefly [4]; evaluation time 0 hour): 0.0% | Mean Mortality (whitefly [4]; evaluation time 6 hour): 1.4% | Mean Mortality (whitefly [4]; evaluation time 24 hour): 50.0% | Mean Mortality (whitefly [4]; evaluation time 48 hour): 80.3%

COC(=O)c1ccccc1 [Methyl Benzoate, methyl benzoate, reference compound]
drop of the repelling effect (adult whitefly [1]; concentration 5 percent, by the end of the 48 hours evaluation period): ~25% | Mean Repellence (adult whitefly [1]; [8]): 100% | Mean Repellence (adult whitefly [1]; [9]): 47.2% | Mean Repellence (adult whitefly [1]; [10]): 76.8% | Mean Repellence (adult whitefly [1]; [11]): 76.5% | Mean Mortality (whitefly [4]; evaluation time 0 hour): 0.0% | Mean Mortality (whitefly [4]; evaluation time 6 hour): 1.4% | Mean Mortality (whitefly [4]; evaluation time 24 hour): 47.6% | Mean Mortality (whitefly [4]; evaluation time 48 hour): 77.8%

Reference: patent US20250287948A1, “TOBACCO ALKALOID INSECT REPELLENT IN PLANTS” (Philip Morris Products S.A., priority 2022, published 2025)
